According to patent US8957056B2, “Migrastatin analogs in the treatment of cancer” (Sloan-Kettering Instiute for Cancer Research, priority 2004, dated 2015):

Key:
[1] = tested on: human ovarian tumor cell line OVCAR3; test: In vivo metastatic ovarian xenograph model (OVCAR3 HSV-TK/eGFP/FLuc); parameters: species or system mouse
Description: The human ovarian tumor cell line OVCAR3 was transduced with a triple fusion gene HSV-TK/eGFP/FLuc, expressing thymidine kinase, enhanced green fluorescence protein and firefly luciferase. Whole animal imaging by luciferase bioluminescence (FIGS. 7A & B), allowed identification and quantification of disseminated tumor. We quantified the tumor burden in each organ, by sacrificing the mouse shortly after luciferin injecting and imaging of the dissected organs (lung, liver and spleen) (FIG. 8). In all instances tumor engraftment was initiated with 1-5×10^7 cells and the recipients received 3 Gy irradiation 10 days before tumor engraftment. These tumor cells generated bulky omental metastases with diffuse microscopic peritoneal carcinomatosis causing ascites (FIG. 9), significant pleural effusion with diffuse macroscopic peritoneal carcinomatosis and liver, lung and paraaortic metastases.
Treatment was initiated once primary tumor was well established. Animals were imaged at weekly intervals to monitor tumor growth and location of metastases (imaging sensitivity 200-500 cells).

[2] = tested on: SKOV; test: Cell proliferation and viability assay (XTT), SKOV; format: cell-based, human; details: 72 h in total, no morphological sign of apoptosis or cell death
Description: (§1) Cell proliferation and viability measurement were assessed by a colorimetric assay using sodium 39-(phenylaminocarbonyl)-3,4-tetrazolium-bis(4-methoxy-6-nitro) benzene sulfonic acid hydrate (XTT, Sigma, St. Louis, Mo.), and phenazine methosulphate (PMS, Sigma, St. Louis, Mo.). Cells from indicated lines were plated at 5˜10×10×10^3/well in 96 well plates in the presence of different concentration of compounds for 52 hrs. Then 50 μL of XTT/PMS mixture was added to each well and incubated for an additional 20 hrs at 37° C. Plate absorbance was measured directly at optical density of 490 nm (reference wavelength at 650 nm) in an ELISA reader (Thermo Max Microplate Reader, Molecular Devices, CA). The data was expressed as the mean of readings obtained in wells with treatment with subtraction of the reading with vehicle control. The total metabolic activity, which correspond to the number of living cells directly correlate to the amount of orange formazan formed in a cell. The result is expressed as percentage of the control.

[3] = tested on: human colon cancer cells (HT29); test: Microarray analysis of treated HT29 cells; format: cell-based; details: 500 nM, 6 h and 18 h
Description: (§2) For the microarray comparison (Affymetrix chip -AU133 plus) human ovarian cancer cells (Ovcar3) and human colon cancer cells (HT29) were treated with 500 nM DMC (48) for 6 h and 18 h or left untreated. A large panel of up and down regulated genes were detected including a broad array of motility, cell shape and chemotaxis genes (FIG. 17).

[4] = tested on: colon cell line HCT 116; test: Wound healing (scratch) assay, HCT 116; format: cell-based, human; parameters: key: successful (+); unsuccessful (−) inhibition of cell migration; details: 10X IC50: 48 (240 nM), 55 (1000 nM), 60 (2550 nM); 24 and 48 h
Description: (§3) The human ovarian cancer cell lines Ovcar3 and IGROV were grown in M5 media. The colon cell lines HT 29 and HCT 116 were cultivated in DMEM containing 10% FCS in a humidified environment at 37° C. Myeloma cell lines CAG (obtained from The Myeloma Institute for Research and Therapy, University of Arkansas) and RPMI8226 as well as lymphoma cell line RL were maintained at RPMI1640 medium containing 10% FCS. All cell lines were acquired from the ATCC if not otherwise stated.
(§4) The tumor cells were seeded into 24-multiwell plates (Becton-Dickinson) and cultivated until the cells formed a confluent monolayer. Wounds were set by horizontally scratching the monolayer with a sterile pipette tip. The cells were thereafter washed twice with Phosphate Buffered Saline (PBS) to remove detached cells. Growth media was then added containing different concentrations of the chemical compound and incubated at 37° C. […] The cells were photographed at the beginning of the experiment and after 24 and 48 h to assess the progression of cell migration into the wound.

[5] = tested on: mouse breast tumor cells (4T1 cells); test: Boyden chamber cell migration assay, 4T1; format: cell-based; details: 4T1 tumor cells, 6-8 hours; read-out: IC50 value, chamber cell migration assay
[6] = tested on: HCT116; test: Cell proliferation and viability assay (XTT), HCT116; format: cell-based, human; details: 72 h in total
Description: as §1

[7] = tested on: CAG cells; test: CAG cell proliferation assay (XTT); format: cell-based, human; details: printed in the legend on CAG cell proliferation; read-out: IC50 (legend of FIG. 3)
Description: In the last 20 hours, sodium 3′-[1-(phenylamino-carbonyl)-3,4-tetrazolium]-bis(4-methoxy-6-nitro) benzene sulfonic acid hydrate (XTT) was added and optical absorbance at 490 nm were measured. As reference wavelength 650 nm was used. […] The result was expressed as percentage of the control.

[8] = tested on: Ovcar3; test: Cell proliferation and viability assay (XTT), Ovcar3; format: cell-based, human; details: 72 h in total
Description: as §1

[9] = tested on: human breast cancer cell line MDA MB435; test: Chamber cell migration assay, MDA MB435; format: cell-based; details: highly metastatic human breast cancer cell line
Description: Cell migrations were assayed with 8 μm of microporous 6.5-mm transwell plates (Corning). 200 μl of 2×10^5 cells in serum-free RPMI1640 medium containing 0.5% BSA were added to the upper chamber and 600 μl of medium with 10% fetal bovine serum was added to the lower chamber. […] Cells migrated to the lower wells were collected and counted for liquid tumors, solid tumors were processed as previously described.^28 Data shown are representative of at least three experiments.

[10] = tested on: human breast cancer cell line MDA MB435; test: Wound healing (scratch) assay, MDA MB435; format: cell-based; parameters: key: successful (+); unsuccessful (−) inhibition of cell migration; details: 10X IC50: 48 (240 nM), 55 (1000 nM), 60 (2550 nM); 24 and 48 h
Description: as §4

[11] = Mouse blood plasma stability; details: test period one hour
Description: The biological evaluation of the compounds (in terms of their ability to inhibit cell migration) was accomplished in a Boyden chamber cell migration assay. In this assay, mouse breast tumor cells (4T1 cells) or endothelial cells (HUVECs) are seeded on the upper chamber of a transwell insert. Growth factor-containing serum is added to the lower chamber.
In anticipation of subsequent in vivo evaluation of these compounds and others, preliminary metabolic stability studies were carried out. […] As a test of the ‘deactivation hypothesis’, the hydrolysis product of macrolactone 48 was prepared (Scheme 27) and tested for its activity against tumor cell migration.

[12] = tested on: human colon cancer cell line HT 29; test: Wound healing (scratch) assay, HT 29; format: cell-based; parameters: key: successful (+); unsuccessful (−) inhibition of cell migration; details: 10X IC50: 48 (240 nM), 55 (1000 nM), 60 (2550 nM); 24 and 48 h
Description: as §3, §4

[13] = tested on: IGROV; test: Cell proliferation and viability assay (XTT), IGROV; format: cell-based, human; details: 72 h in total, no morphological sign of apoptosis or cell death
Description: as §1

[14] = tested on: Ovcar4; test: Cell proliferation and viability assay (XTT), Ovcar4; format: cell-based, human; details: 72 h in total
Description: as §1

[15] = tested on: human ovarian cancer cell line Ovcar3; test: Wound healing (scratch) assay, Ovcar3; format: cell-based; parameters: key: successful (+); unsuccessful (−) inhibition of cell migration; details: 10X IC50: 48 (240 nM), 55 (1000 nM), 60 (2550 nM); 24 and 48 h
Description: as §3, §4

[16] = tested on: HT29; test: Cell proliferation and viability assay (XTT), HT29; format: cell-based, human; details: 72 h in total, no morphological sign of apoptosis or cell death
Description: as §1

[17] = tested on: human ovarian cancer cell line IGROV; test: Wound healing (scratch) assay, IGROV; format: cell-based; parameters: key: successful (+); unsuccessful (−) inhibition of cell migration; details: 10X IC50: 48 (240 nM), 55 (1000 nM), 60 (2550 nM); 24 and 48 h
Description: as §3, §4

[18] = tested on: human ovarian cancer cells Ovcar3; test: Immunofluorescence staining of treated Ovcar3 cells; format: cell-based; details: 500 nM
Description: as §2
Ovcar3 cells in exponential growth phase were seeded into 24 well plates at 2×10^4/ml in the presence of 500 nM of DMC (48). […] At the time of staining, cells were pre-blocked at room temperature in PBS with 3% BSA and 0.2% Na-azide. After washing, the cells were then incubated with indicated monoclonal antibody (FIG. 18), diluted 1:200 in 1.5% blocking serum, at 37° C. Cells were washed again and incubated with anti-mouse-Alexa red secondary antibody in the dark at 37° C. Cells were then counter-stained with 4,6-diamidino-2-phenylindole (DAPI) at 0.2 μg/ml PBS.

[19] = 40 mg/kg three times a week for 10 treatments
[20] = daily injection of 40 mg/kg i.p.

Structure (SMILES): CO[C@H]1/C=C/CCCCC(=O)OC/C(C)=C\[C@@H](C)[C@@H]1O [Compound 48, Macrolactone]
- reduction of metastasis for liver [1, 19]: 80%
- reduction of metastasis in lung and spleen [1, 19]: highly significant reduction
- treated mice that had ascitis ([1]; FIG. 9, 4 out of 4 control mice had ascitis): 1 out of 4
- survival [1, 20]: increase of survival
- total tumor mass [1, 20]: reduction of the total tumor mass
- mice with inhibition of ascitis at the endpoint ([1]; daily injection of 40 mg/kg i.p., all control mice developed ascites): 3 out of 4
- effect on proliferation, SKOV [2]: inhibition of proliferation
- E-cadherin expression, micro array [3]: upregulation
- inhibition of cell migration, wound healing assay, HCT 116 [4]: +
- IC50 [5]: 24 nM
- effect on proliferation, HCT116 [6]: uninfluenced
- IC50 [7]: 24 nM
- effect on proliferation, Ovcar3 [8]: uninfluenced
- response of MDA MB435 to the compound [9]: responded only slightly
- inhibition of cell migration, wound healing assay, MDA MB435 [10]: +
- metabolic stability in mouse blood plasma [11]: hydrolyzed rapidly
- inhibition of cell migration, wound healing assay, HT 29 [12]: +
- effect on proliferation, IGROV [13]: inhibition of proliferation
- effect on proliferation, Ovcar4 [14]: uninfluenced
- inhibition of cell migration, wound healing assay, Ovcar3 [15]: +
- effect on proliferation, HT29 [16]: inhibition of proliferation
- inhibition of cell migration, wound healing assay, IGROV [17]: +
- Integrin α2 and CD44, immunofluorescent microscopy [18]: Upregulated
- β-tubulin, immunofluorescent microscopy ([18]; after 6 h or 24 h): did not show any modulations
